From ChEMBL document CHEMBL1201862, “PubChem BioAssay data set” (2004)
Calls of active or inactive are those of the source.

How the values were obtained:
Genome polyprotein = Genome polyprotein (Hepatitis C virus, UniProt Q2Q167); assay: disruption of hepatitis C core self-association – biochemical, TR-FRET, dose response (AID 2159); set-up: species or system Hepacivirus hominis;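 further: blocks dimerization of HCV core protein measured by TR-FRET between tagged core106 pairs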
SUMO-activating enzyme [1] = biological target: T1, SUMO-activating enzyme (Homo sapiens, UniProt Q9UBT2); assay: blockers of UBC9-mediated SUMO conjugation – biochemical, AlphaScreen, SUMOylation inhibitor project, confirmation (AID 2018); assay type: functional
[2] = biological target: T2, Voltage-gated N-type calcium channel alpha-1B subunit/Amyloid beta A4 precursor protein-binding family A member 1 (Homo sapiens, UniProt Q00975+Q02410); assay type: protein assay
T2 sequence (Q00975 whole entry): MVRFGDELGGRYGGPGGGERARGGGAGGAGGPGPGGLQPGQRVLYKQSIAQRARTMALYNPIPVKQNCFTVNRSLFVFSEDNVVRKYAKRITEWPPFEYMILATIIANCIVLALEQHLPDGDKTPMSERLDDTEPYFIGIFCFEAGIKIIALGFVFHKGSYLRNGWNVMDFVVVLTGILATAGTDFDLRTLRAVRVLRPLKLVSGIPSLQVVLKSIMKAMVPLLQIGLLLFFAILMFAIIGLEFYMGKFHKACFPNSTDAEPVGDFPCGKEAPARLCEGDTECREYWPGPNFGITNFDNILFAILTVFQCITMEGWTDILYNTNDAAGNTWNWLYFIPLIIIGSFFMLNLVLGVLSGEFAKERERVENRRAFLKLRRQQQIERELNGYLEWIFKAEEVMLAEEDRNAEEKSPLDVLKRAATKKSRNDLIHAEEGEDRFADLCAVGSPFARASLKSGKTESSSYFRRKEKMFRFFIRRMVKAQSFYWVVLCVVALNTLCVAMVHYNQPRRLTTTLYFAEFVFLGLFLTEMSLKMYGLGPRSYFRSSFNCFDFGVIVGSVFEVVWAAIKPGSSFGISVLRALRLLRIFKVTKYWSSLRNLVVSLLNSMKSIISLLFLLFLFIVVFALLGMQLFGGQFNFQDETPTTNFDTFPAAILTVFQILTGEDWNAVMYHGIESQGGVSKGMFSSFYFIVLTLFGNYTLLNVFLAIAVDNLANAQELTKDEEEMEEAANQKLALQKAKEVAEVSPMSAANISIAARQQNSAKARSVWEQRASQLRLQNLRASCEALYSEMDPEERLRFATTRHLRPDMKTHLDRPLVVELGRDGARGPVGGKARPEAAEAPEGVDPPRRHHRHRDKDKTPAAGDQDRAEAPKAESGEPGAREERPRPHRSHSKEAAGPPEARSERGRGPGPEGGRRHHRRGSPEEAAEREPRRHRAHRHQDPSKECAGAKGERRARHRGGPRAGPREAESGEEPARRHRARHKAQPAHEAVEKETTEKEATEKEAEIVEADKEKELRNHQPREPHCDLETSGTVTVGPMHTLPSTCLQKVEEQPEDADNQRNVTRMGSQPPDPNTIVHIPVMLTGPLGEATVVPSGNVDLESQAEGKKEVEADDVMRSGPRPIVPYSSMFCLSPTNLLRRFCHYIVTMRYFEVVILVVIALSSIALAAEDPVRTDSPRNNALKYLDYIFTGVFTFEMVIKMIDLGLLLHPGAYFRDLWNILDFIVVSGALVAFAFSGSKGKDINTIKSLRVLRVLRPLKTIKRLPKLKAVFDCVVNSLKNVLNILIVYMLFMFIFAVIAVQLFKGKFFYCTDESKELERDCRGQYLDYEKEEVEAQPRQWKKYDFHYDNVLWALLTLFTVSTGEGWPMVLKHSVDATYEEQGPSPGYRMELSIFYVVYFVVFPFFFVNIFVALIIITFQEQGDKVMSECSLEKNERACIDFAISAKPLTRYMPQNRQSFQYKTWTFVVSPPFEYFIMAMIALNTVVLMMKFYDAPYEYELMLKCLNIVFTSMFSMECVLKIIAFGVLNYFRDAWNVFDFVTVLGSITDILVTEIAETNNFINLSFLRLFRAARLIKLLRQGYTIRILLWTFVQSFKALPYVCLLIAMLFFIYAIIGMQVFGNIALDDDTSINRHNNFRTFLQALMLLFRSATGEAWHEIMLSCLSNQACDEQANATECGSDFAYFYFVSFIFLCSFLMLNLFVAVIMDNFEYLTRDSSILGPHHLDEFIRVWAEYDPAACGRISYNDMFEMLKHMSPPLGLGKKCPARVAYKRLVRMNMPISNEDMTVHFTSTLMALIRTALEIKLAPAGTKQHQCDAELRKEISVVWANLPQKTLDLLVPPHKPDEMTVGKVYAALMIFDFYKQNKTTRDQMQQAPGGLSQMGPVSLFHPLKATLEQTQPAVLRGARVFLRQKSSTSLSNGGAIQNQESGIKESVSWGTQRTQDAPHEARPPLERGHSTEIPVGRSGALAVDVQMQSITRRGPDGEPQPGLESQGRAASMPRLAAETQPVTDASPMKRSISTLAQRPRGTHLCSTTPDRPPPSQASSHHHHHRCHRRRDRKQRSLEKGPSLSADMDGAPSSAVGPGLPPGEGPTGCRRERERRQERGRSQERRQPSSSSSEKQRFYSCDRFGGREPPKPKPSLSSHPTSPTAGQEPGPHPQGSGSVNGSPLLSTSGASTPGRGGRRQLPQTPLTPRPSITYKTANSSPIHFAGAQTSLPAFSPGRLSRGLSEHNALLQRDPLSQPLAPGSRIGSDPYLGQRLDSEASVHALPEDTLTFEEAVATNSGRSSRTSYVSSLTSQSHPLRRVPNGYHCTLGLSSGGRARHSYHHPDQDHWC
T2 sequence (Q02410 whole entry): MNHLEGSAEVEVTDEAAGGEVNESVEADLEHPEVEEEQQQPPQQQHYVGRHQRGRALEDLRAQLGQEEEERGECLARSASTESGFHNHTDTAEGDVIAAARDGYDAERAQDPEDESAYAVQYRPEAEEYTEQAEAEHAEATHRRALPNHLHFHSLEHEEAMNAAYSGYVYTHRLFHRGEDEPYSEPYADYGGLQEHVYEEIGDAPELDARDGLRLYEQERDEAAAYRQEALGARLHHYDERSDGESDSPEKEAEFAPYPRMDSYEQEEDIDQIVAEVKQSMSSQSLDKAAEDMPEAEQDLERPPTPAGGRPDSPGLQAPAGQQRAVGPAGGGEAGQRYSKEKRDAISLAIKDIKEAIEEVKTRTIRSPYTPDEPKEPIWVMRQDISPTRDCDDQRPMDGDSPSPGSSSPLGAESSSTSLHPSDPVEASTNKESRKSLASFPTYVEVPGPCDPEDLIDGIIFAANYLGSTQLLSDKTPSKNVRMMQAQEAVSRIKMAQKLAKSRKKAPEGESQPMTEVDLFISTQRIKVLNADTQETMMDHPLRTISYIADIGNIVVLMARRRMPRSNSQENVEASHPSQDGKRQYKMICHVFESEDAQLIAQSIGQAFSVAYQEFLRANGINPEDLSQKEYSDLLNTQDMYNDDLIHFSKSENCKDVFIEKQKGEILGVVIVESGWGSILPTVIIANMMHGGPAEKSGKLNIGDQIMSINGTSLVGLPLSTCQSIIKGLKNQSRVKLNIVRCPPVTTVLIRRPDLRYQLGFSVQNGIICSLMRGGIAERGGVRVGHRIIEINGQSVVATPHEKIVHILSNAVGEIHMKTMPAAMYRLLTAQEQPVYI

SUMO-activating enzyme [3] = biological target: T1, SUMO-activating enzyme; assay: blockers of SAE1/SAE2–UBC9 SUMO transfer – biochemical, HTRF, uHTS, primary screen (AID 2006); assay type: protein-complex assay
[4] = biological target: T2, Voltage-gated N-type calcium channel alpha-1B subunit/Amyloid beta A4 precursor protein-binding family A member 1; assay type: protein assay; remark: listed apart in the source
Paired box protein Pax-8 = Paired box protein Pax-8 (Homo sapiens, UniProt Q06710); assay: PAX8 transcriptional activity inhibition in RMG-I – RMG-I cells, luciferase, cherry-pick, dose response (AID 687027); assay type: functional, cell-based;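 further: luciferase reporter driven by Pax8 target thyroperoxidase promoter measured by SteadyGlo luminescence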
Caspase-3 = biological target: T3, Caspase-3 (Homo sapiens, UniProt P42574); assay: activation of caspase-3 zymogen – biochemical, absorbance, dose response (AID 489014)
T3 sequence (P42574 whole entry): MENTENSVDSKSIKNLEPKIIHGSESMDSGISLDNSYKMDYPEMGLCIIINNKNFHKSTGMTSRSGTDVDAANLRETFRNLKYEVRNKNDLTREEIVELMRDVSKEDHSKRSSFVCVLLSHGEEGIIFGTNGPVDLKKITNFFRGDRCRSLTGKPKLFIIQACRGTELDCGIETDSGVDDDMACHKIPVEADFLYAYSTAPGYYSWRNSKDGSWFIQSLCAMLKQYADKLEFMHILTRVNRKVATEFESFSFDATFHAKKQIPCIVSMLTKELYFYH

Caspase-7 = Caspase-7 (Homo sapiens, UniProt P55210); assay: activation of caspase-7 zymogen – biochemical, absorbance, counter-screen for procaspase-3 activator project, dose response (AID 489013)
[5] = biological target: G-protein coupled receptor 35 (Homo sapiens, UniProt Q9HC97); assay: inhibition of zaprinast-stimulated GPR35 beta-arrestin translocation – imaging, U2OS, beta-arrestin-GFP, zaprinast agonist, primary screen (AID 2058); assay type: functional;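 further: antagonist potency meaning inhibition of agonist-induced arrestin redistribution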
Sequence of G-protein coupled receptor 35 (Q9HC97 whole entry): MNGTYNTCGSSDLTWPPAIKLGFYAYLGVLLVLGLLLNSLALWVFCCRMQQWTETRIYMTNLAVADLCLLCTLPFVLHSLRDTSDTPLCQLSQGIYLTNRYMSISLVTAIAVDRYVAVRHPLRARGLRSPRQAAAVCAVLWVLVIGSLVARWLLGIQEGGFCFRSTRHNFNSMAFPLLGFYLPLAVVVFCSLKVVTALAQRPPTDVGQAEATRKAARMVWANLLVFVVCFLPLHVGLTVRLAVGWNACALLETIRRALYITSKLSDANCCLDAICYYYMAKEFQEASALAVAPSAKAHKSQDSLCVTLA

[6] = biological target: E3 ubiquitin-protein ligase Mdm2/Protein Mdm4 (Homo sapiens, UniProt O15151+Q00987); assay: disruption of Mdm2/MdmX protein binding – luminescence detection, dose response (AID 504593); assay type: functional
[7] = biological target: T4, Microphthalmia-associated transcription factor (Homo sapiens, UniProt O75030); assay: reducers of TRPM1 reporter luminescence, concentration series – cell-based, SK-MEL-5, cherry-picked, set 3, MITF inhibitor project, dose response (AID 493073); assay type: functional;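 further: SK-MEL-5 melanoma cells with luciferase driven by the MITF target TRPM1 promoter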
T4 sequence (O75030 whole entry): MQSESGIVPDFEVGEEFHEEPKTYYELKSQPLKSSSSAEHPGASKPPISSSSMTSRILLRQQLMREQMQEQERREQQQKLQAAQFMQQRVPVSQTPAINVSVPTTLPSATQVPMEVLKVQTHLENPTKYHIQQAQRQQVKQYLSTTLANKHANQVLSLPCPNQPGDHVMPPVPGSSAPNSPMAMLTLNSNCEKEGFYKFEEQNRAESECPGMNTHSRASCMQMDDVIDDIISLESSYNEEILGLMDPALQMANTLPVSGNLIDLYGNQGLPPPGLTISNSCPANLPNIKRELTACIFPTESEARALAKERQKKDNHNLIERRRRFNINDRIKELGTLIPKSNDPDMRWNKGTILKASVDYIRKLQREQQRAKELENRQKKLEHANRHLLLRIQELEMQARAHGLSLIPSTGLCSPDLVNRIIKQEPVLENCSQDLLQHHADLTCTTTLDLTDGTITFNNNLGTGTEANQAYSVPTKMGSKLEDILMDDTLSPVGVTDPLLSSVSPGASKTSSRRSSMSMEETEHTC

A-375 = assay: proliferation inhibition in MITF-low A375 cells – cell-based, cherry-pick samples, set 2, counter-screen for MITF modulator project, dose response (AID 540335); assay type: functional; details: Homo sapiens
Troponin, cardiac muscle = Troponin, cardiac muscle (Homo sapiens, UniProt P19429+P45379+P63316); assay: compounds desensitizing RTF to calcium – biochemical, fluorescence, cardiac regulated thin filaments, triplicate IC50, dose response (AID 504742); assay type: protein-complex assay
[8] = biological target: T5, Histone-lysine N-methyltransferase NSD2 (Homo sapiens, UniProt O96028); assay type: biochemical
T5 sequence (O96028 whole entry): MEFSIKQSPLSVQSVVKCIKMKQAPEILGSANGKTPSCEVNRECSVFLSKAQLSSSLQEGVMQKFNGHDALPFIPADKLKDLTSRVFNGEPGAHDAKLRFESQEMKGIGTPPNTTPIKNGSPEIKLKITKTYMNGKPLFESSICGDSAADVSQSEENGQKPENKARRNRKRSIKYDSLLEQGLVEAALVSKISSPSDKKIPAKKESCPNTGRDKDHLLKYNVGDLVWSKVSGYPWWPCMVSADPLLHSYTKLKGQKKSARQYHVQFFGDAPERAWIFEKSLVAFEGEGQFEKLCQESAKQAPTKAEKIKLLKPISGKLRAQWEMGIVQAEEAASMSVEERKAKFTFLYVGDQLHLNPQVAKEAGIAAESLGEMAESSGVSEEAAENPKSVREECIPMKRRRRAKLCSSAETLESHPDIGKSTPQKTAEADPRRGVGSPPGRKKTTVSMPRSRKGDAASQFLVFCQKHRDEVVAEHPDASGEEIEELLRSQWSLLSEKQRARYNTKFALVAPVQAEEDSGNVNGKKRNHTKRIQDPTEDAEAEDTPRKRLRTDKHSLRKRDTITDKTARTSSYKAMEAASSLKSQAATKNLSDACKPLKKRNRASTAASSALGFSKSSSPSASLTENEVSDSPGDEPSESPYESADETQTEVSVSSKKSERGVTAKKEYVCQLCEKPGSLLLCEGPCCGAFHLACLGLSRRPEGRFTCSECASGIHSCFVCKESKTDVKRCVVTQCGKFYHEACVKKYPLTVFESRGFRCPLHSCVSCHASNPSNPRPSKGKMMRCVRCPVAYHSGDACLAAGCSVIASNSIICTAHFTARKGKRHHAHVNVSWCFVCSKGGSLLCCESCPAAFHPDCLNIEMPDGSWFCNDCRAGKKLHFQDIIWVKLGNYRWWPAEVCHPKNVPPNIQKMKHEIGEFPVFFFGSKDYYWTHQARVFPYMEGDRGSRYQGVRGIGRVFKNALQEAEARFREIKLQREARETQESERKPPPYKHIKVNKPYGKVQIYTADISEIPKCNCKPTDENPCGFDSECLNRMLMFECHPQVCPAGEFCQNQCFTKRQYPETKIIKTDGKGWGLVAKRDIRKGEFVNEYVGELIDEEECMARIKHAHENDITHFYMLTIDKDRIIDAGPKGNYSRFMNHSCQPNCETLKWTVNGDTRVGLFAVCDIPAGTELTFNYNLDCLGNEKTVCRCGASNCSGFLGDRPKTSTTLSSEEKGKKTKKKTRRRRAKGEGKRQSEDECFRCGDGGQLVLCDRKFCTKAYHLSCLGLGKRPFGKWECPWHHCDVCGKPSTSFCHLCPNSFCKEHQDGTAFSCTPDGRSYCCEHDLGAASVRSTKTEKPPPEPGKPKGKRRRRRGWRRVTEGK

Mu-type opioid receptor = Mu-type opioid receptor (Homo sapiens, UniProt P35372); assay: SAR Analysis of Antagonists of the MOR Receptor using an Image-Based Assay - Set 3. [Related pubchem assays (depositor defined):AID1777, AID1785, AID1786, AID1966, AID2133, AID2136, AID2284, AID2285, AID2420]; assay type: functional
Sequence of Mu-type opioid receptor (P35372 whole entry): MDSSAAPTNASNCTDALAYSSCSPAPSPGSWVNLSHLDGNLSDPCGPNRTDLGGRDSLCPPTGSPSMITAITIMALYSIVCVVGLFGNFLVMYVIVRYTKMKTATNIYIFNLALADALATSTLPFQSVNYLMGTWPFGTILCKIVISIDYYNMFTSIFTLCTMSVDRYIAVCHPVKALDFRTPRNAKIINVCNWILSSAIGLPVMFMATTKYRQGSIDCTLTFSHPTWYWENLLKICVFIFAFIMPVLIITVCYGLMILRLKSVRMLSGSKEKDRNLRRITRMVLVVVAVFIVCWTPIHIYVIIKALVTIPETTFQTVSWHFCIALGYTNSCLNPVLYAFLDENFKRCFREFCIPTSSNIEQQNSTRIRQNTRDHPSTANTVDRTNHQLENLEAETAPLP

[9] = biological target: T6, Kappa-type opioid receptor (Homo sapiens, UniProt P41145); assay: SAR analysis of small molecule antagonists of the kappa opioid receptor via a luminescent beta-arrestin assay - Set 6. [Related pubchem assays (depositor defined):AID1777, AID1778, AID1785, AID1786, AID1966, AID2133, AID2136, AID2285]; assay type: functional
T6 sequence (P41145 whole entry): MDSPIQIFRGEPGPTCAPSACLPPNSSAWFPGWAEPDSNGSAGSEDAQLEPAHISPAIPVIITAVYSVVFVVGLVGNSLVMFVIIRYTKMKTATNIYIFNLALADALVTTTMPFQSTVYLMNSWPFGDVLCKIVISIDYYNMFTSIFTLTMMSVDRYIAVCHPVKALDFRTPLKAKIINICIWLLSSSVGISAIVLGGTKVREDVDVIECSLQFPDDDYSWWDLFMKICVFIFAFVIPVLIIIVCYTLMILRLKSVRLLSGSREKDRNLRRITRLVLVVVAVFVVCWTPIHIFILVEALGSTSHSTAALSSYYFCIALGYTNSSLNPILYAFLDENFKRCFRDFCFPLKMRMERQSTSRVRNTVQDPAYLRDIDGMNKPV

[10] = biological target: T6, Kappa-type opioid receptor; assay: SAR analysis of small molecule antagonists of the kappa opioid receptor via a luminescent beta-arrestin assay - Set 4. [Related pubchem assays (depositor defined):AID1777, AID1778, AID1785, AID1786, AID1966, AID2133, AID2136, AID2285]; assay type: functional
[11] = biological target: Delta-type opioid receptor (Homo sapiens, UniProt P41143); assay: SAR Analysis of Antagonists of the DOR Receptor using an Image-Based Assay - Set 3. [Related pubchem assays (depositor defined):AID1777, AID1785]; assay type: functional;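 further: U2OS cells expressing DOR1 and beta-arrestin GFP stimulated with 100 nM SNC80; imaging of GFP-tagged beta-arrestin moving into spots after receptor activation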
Sequence of Delta-type opioid receptor (P41143 whole entry): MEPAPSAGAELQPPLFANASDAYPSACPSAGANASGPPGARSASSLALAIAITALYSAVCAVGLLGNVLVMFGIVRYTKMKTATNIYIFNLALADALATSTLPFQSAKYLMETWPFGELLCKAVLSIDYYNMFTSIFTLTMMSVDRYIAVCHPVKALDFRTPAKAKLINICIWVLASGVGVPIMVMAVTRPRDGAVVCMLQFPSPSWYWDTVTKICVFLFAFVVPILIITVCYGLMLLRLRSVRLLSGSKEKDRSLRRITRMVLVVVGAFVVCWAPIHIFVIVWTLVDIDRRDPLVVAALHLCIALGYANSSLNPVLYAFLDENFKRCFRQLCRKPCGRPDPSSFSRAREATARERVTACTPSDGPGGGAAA

[12] = biological target: T6, Kappa-type opioid receptor; assay: SAR analysis of Antagonists of the Kappa Opioid Receptor (KOR) using an Image-Based Assay - Set 4. [Related pubchem assays (depositor defined):AID1777, AID1785]; assay type: functional
[13] = biological target: T6, Kappa-type opioid receptor; assay: SAR analysis of small molecule antagonists of the kappa opioid receptor via a luminescent beta-arrestin assay - Set 3. [Related pubchem assays (depositor defined):AID1777, AID1778, AID1785, AID1786, AID1966, AID2133, AID2136, AID2285, AID2495]; assay type: functional
[14] = biological target: T6, Kappa-type opioid receptor; assay: SAR analysis of Antagonists of the Kappa Opioid Receptor (KOR) using an Image-Based Assay - Set 3. [Related pubchem assays (depositor defined):AID1777, AID1785]; assay type: functional
[15] = system: Streptococcus sp. 'group A'; assay: Streptococcus pyogenes SK(-)GAS viability under kanamycin – luminescence, BacTiterGlo, confirmation, counter-screen for streptokinase expression inhibitor project, dose response (AID 1900); assay type: functional, organism-based
Streptokinase A = biological target: T7, Streptokinase A (Streptococcus pyogenes serotype M1, UniProt P10520); assay: viability-normalized secreted streptokinase activity reduction – plasminogen activation absorbance, OD405, dose response (AID 1914); assay type: functional, Streptococcus pyogenes M1 GAS;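 further: secreted streptokinase activity via plasminogen activation per viability signal from cell pellet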
T7 sequence (P10520 whole entry): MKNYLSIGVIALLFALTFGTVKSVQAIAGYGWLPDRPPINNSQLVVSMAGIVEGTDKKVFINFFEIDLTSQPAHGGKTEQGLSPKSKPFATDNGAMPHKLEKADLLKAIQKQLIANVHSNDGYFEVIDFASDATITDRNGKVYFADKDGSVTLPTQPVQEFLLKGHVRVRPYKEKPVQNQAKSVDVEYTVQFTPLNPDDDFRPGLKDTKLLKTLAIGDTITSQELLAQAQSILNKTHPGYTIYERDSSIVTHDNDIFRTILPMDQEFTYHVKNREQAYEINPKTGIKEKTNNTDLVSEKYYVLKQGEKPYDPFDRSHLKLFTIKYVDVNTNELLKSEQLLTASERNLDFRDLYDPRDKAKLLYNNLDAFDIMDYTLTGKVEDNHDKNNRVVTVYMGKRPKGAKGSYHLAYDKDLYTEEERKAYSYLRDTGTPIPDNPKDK

Streptococcus = assay: GAS UMAA2166 growth inhibition – luminescence, BacTiterGlo, counter-screen for streptokinase expression inhibitor project, dose response (AID 1915); assay type: functional, organism-based;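 further: potency for reduction of bacterial viability or growth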
[16] = biological target: DNA dC->dU-editing enzyme APOBEC-3A (Homo sapiens, UniProt P31941); assay: A3A deaminase inhibition for selectivity – biochemical, dose response (AID 504722); assay type: functional
Sequence of DNA dC->dU-editing enzyme APOBEC-3A (P31941 whole entry): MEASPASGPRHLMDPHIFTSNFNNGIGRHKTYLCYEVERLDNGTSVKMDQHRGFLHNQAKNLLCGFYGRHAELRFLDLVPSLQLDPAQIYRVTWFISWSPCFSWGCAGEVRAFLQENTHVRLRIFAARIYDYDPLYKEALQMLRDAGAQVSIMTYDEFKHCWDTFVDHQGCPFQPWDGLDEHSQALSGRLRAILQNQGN

[17] = biological target: DNA dC->dU-editing enzyme APOBEC-3G (Homo sapiens, UniProt Q9HC16); assay: Dose Response confirmation of small molecule APOBEC3G DNA Deaminase Inhibitors via a fluorescence-based single-stranded DNA deaminase assay. [Related pubchem assays (depositor defined):AID493012, AID493028]; assay type: functional

Sequence of Genome polyprotein (Q2Q167 whole entry): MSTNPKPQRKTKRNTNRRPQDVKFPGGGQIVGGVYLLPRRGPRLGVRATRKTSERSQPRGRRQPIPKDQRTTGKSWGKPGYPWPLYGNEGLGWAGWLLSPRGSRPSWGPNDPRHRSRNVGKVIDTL

Compound: COc1ccc(-c2nc3c(c(SCC(=O)Nc4cccc(O)c4)n2)Cc2c(CO)cnc(C)c2O3)cc1
- IC50 (Genome polyprotein): > 49.8 µM (not active)
- IC50 (SUMO-activating enzyme [1]): 9.01 µM (active)
- IC50 [2]: 28.1 µM (active)
- IC50 (SUMO-activating enzyme [3]): 32.8 µM (active)
- IC50 [4]: > 50 µM (inactive)
- AC50 (Paired box protein Pax-8): 67.6 µM (active)

Compound: Cc1ccc(C2Nc3ccc4ccccc4c3C3=C2C(=O)CC(C)(C)C3)o1 (stereo not drawn)
- EC50 (Caspase-3): > 85.3 µM (inactive)
- EC50 (Caspase-7): > 85.3 µM (inactive)

Compound: CCN(CC)S(=O)(=O)c1ccc(NC(=O)c2cccnc2Cl)c(NC(=O)c2cccnc2Cl)c1
- IC50 [5]: 8.8 µM (active)
- IC50 [6]: 4.18 µM (active)
- AC50 [7]: 7.02 µM (active)
- AC50 (A-375): 23.2 µM (active)

Compound: CCOc1ccc2nc3cc(N=Nc4ccc(N)nc4N)ccc3c(N)c2c1
- IC50 (Troponin, cardiac muscle): 12.7 µM (inactive)
- AC50 [8]: > 20 µM (inactive)

Compound: Cc1ccc(S(=O)(=O)NCc2ccc(C(=O)NCCN(Cc3ccccc3)C(C)(C)C)cc2)cc1
- IC50 (Mu-type opioid receptor): 1.39 µM (active)
- IC50 [9]: 0.0535 µM (active)
- IC50 [10]: 0.0763 µM (active)
- IC50 [11]: > 32 µM (inactive)
- IC50 [12]: 0.0287 µM (active)

Compound: O=C(Cn1c(=O)c2cccn2c2cccnc21)NCCCN1CCCCC1
- IC50 (Mu-type opioid receptor): > 32 µM (inactive)
- IC50 [11]: > 32 µM (inactive)
- IC50 [13]: > 20 µM (inactive)
- IC50 [14]: > 32 µM (inactive)

Compound: COc1ccc(OC)c(/C=N/n2c(S)nnc2-c2[nH]nc3c2CCC3)c1
- EC50 [15]: > 150 µM (not active)
- EC50 (Streptokinase A): 18.9 µM (inconclusive)
- EC50 (Streptococcus): > 150 µM (not active)
- IC50 [16]: > 100 µM (inactive)
- IC50 [17]: 2.88 µM (active)
